In patent US11660326B2, “Bacterial-binding peptides for treatment of infectious diseases and related inflammatory processes” (priority 2018, dated 2023):

Key:
[1] = tested on: G+ and G− bacterial suspensions (including MDR strains); experiment: Bacterial agglutination assay; type: cell-based; conditions: peptide 5, 50 and 200 μg/mL; G+ and G− bacterial suspensions incl. MDR strains
Method: FIG. 2. Bacterial agglutination properties of CD6-derived peptides. Increasing concentrations (5, 50 and 200 μg/mL) of the indicated CD6 (PD1, PD2, and PD3), DMBT-1 (pbs1; C+) and CD5 (PD2; C-)-derived peptides were incubated for 2 h at room temperature in 96-well U-bottomed plates with alive bacterial cell suspensions (75×10^6 CFU/mL) in TTC buffer (50 mM Tris pH 7.5 plus 150 mM NaCl, 0.1% Tween 20, and 1 mM Ca^2+). Bacterial agglutination was scored and condensed by two independent observers as −, +/−, +, ++ or +++. (A) Summary of the agglutination results obtained with the indicated panel of Gram-negative (Multidrug resistant Acinetobacter baumanii clinical isolate; Enterobacter cloacae ATCC 23355; Escherichia coli ATCC 25922; Klebsiella pneumoniae ATCC 13883; […]; Pseudomonas aeruginosa ATCC 27853) and Gram-positive (Staphyloccocus aureus ATCC 25923; Methicilin-resistant Staphylococus aureus (MRSA) clinical isolate) bacterial strains. (B) Representative agglutination results obtained for the MRSA clinical isolate.
5×10^8 colony-forming units (CFU)/mL diluted in TTC buffer (50 mM Tris pH 7.5 plus 150 mM NaCl, 0.1% Tween 20, and 1 mM Ca^2+) were mixed (1:1) with different peptide concentrations (0-200 μg/mL) in 96 U-bottomed well microtiter plates (Biofil) (Bikker F J, et al., 2002, Identification of the bacteria-binding peptide domain on salivary agglutinin (gp-340/DMBT1), a member of the scavenger receptor cysteine-rich superfamily, J Biol Chem 277:32109-15). After overnight incubation at 37° C., bacterial agglutination was examined by light microscopy and scored from -(absent) to +++ (maximal) by two independent observers. […]

[2] = Dynamic light scattering (DLS), hydrodynamic size of peptides in solution; type: physicochemical; conditions: 10 μg/mL in PBS, 25° C.
Method: FIG. 5. Analysis of the hydrodynamic size of CD6-derived peptides in solution. The dynamic light scattering (DLS) analysis of the hydrodynamic diameter of CD6 (PD1, PD2, PD3, and Pcons) and DMBT-1/SAG (pbs1) derived peptides (10 μg/mL) in PBS is shown. The y axis represents the relative intensity of the scattered light; the x axis denotes the hydrodynamic diameter of the particles present in the solution. One representative experiment of four performed is shown (left). The numeric values obtained for each peptide are also shown (right).
The hydrodynamic diameters of peptides (10 μg/mL in PBS) were measured at 25° C. in a Zetasizer Nano S from Malvern Instruments (Worcestershire, UK) equipped with a 633 nm HeNe laser, as described (Saenz A, et al., 2010, Fluidizing effects of C-reactive protein on lung surfactant membranes: protective role of surfactant protein A, FASEB J 24:3662-73). Four scans were recorded for each sample, and samples were analyzed in triplicate.

[3] = tested on: mice undergoing CLP-induced septic shock; experiment: Mouse survival following CLP-induced septic shock; type: in vivo, C57BL/6J mice; conditions: for effect on mice survival, in words: CLP-induced sepsis, compared to saline-treated group; for survival: single 6 mg/kg i.v. at +1 h post CLP, FIG. 7
Method: FIG. 7. Comparative therapeutic effects of i.v. infused CD6-derived peptides on mouse survival following Cecal Ligation and Puncture (CLP)-induced sepsis. (A, B) C57BL/6J mice were i.v. infused with saline (n=25) or single 6 mg/kg doses of unlabeled CD6- (PD1, n=8; PD2, n=16; PD3, n=15; Pcons, n=12) or DMBT1 (pbs1, n=13) derived peptides at +1 h post CLP induction. A sham group (n=3) was included. In all cases average percent survival was analyzed over time for each group and compared with the saline-treated group using the long-rank t-test (*, P<0.05; **, P<0.01; ***, P<0.001).
FIG. 8. Dose-, time- and via-dependent effects of CD6.PD3 infusion on mouse survival following CLP-induced sepsis. (A) C57BL/6 mice were i.v. infused at +1 h post CLP with saline (n=26) or single increasing doses (3 mg/kg, n=13; 6 mg/kg, n=15; and 12 mg/kg, n=8) of CD6.PD3 peptide. (B) C57BL/6 mice were i.v. infused with saline (n=4) or 6 mg/kg CD6.PD3 at different times post CLP (+1 h, n=5; +3 h, n=5; +6 h, n=6). (C) C57BL/6J mice were i.v. (n=11) or i.p. (n=9) infused with 6 mg/kg CD6.PD3 peptide or saline (n=9) at +1 h post CLP. In all cases, average percent of survival was analyzed over time and compared with the saline-treated group using a log-rank t-test (n.s., not significant; *, P<0.05. **, P<0.01; ***, P<0.001).
FIG. 10. Additive effects of combined administration of CD6.PD3 plus Imipenem/Cilastatin on mouse survival following CLP-induced sepsis. C57BL/6J mice were therapeutically infused at +1 h post CLP with saline (n=36), CD6.PD3 (6 mg/kg i.v.; n=25), Imipenem/Cilastatin (I/C, 50 mg/kg/12 h i.p.; n=9) or a combination of the two later (I/C+PD3, n=11). In all cases average percent survival was analyzed over time for each group and compared to the I/C plus CD6.PD3 group using the long-rank t-test (**, P<0.02; ***, P<0.002).
Animal procedures were approved by the Animal Experimentation Ethical Committee, University of Barcelona. High-grade mortality (≥90% mortality within the first 48-72 h) CLP-induced septic shock was induced in 8-10 week old C57BL/6J male mice (20-25 g; Charles River) as previously reported (Martinez-Florensa M, et al., 2017, Protective Effects of Human and Mouse Soluble Scavenger-Like CD6 Lymphocyte Receptor in a Lethal Model of Polymicrobial Sepsis, Antimicrob Agents Chemother 61:e01391-16).
Survival assays were analyzed by a Log-Rank χ^2 test using GraphPad Prism software. The significance of differences between experimental groups was determined by 2-tailed paired T test with 95% of confidence intervals (CI). P values were considered significant when P<0.05. Statistical analysis (mean±SEM) was performed using a 2-tailed Mann-Whitney test, with 95% of Cl.

| Sequence | bacterial agglutination [1] | hydrodynamic size, first (or single) peak [2] [nm] | hydrodynamic size, second peak [2] [nm] | survival rate post CLP ([3]; 3 mg/kg i.v. at +1 h post CLP, FIG. 8A) [%] | survival, i.v. versus i.p. pathway ([3]; 6 mg/kg at +1 h post CLP, FIG. 8C) | survival rate post CLP ([3]; 6 mg/kg i.v. at +1 h post CLP, FIG. 8A) [%] | survival rate post CLP ([3]; 6 mg/kg i.v. at +1 h post CLP, FIG. 8B) [%] | survival rate post CLP ([3]; 6 mg/kg i.v. at +3 h post CLP, FIG. 8B) [%] | survival rate post CLP ([3]; 12 mg/kg i.v. at +1 h post CLP, FIG. 8A) [%] | mice survival ([3]; +1 h post CLP, CD6.PD3 6 mg/kg i.v., Imipenem/Cilastatin 50 mg/kg/12 h i.p., FIG. 10) [%] | effect on mice survival, in words [3] | survival [3] [%] |
| --- | --- | --- | --- | --- | --- | --- | --- | --- | --- | --- | --- | --- |
| GQVEVHFRGVW (CD6.PD3) | dose-dependent agglutination | 630±3 | 5151±7 | 23.08 | No significant differences | 37.5 | 40 | 20 | 40 | 30.8 | improves the survival | 36.36 |
| GRVEMLEHGEW [CD6.PD2] | not and lower bacterial agglutination properties | 379±5 | – | – | – | – | – | – | – | – | – | 12.5 |
| GTVEVRLEASW [CD6.PD1] | dose-dependent agglutination | 321±5 | 1484±8 | – | – | – | – | – | – | – | No significant effects | – |
